Laboratory results published in ChEMBL document CHEMBL3431459, “Roche carnitine palmitoyltransferase modulator screening data (supplementary data associated with the publication CHEMBL2216752)”.
Values after ≈ are worked out from the molar mass of the structure shown.

Legend:
[1] = biological target: T1, Carnitine O-palmitoyltransferase 2, mitochondrial (Rattus norvegicus, UniProt P18886); experiment: (§1) SUPPLEMENTARY: Inhibition of Carnitine palmitoyltransferase 2
T1 sequence (P18886 whole entry): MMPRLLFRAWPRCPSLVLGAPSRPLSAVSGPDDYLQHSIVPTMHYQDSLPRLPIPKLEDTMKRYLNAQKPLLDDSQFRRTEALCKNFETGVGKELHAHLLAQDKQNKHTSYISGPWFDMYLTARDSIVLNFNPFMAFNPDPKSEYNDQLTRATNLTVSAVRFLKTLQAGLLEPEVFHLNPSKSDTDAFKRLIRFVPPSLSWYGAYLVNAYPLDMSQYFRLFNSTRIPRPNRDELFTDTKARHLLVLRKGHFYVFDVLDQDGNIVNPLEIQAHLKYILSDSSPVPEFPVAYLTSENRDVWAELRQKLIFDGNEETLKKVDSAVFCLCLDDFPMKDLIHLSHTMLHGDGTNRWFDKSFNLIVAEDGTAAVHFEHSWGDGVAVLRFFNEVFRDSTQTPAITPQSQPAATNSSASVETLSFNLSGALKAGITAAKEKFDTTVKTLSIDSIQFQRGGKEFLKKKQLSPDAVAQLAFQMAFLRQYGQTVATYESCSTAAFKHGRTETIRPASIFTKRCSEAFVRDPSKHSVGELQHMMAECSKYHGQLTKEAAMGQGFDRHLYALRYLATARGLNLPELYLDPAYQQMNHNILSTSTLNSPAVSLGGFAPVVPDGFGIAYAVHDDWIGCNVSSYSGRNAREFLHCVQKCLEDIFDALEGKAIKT

[2] = biological target: T2, Carnitine O-palmitoyltransferase 2, mitochondrial (Homo sapiens, UniProt P23786); experiment: as §1
T2 sequence (P23786 whole entry): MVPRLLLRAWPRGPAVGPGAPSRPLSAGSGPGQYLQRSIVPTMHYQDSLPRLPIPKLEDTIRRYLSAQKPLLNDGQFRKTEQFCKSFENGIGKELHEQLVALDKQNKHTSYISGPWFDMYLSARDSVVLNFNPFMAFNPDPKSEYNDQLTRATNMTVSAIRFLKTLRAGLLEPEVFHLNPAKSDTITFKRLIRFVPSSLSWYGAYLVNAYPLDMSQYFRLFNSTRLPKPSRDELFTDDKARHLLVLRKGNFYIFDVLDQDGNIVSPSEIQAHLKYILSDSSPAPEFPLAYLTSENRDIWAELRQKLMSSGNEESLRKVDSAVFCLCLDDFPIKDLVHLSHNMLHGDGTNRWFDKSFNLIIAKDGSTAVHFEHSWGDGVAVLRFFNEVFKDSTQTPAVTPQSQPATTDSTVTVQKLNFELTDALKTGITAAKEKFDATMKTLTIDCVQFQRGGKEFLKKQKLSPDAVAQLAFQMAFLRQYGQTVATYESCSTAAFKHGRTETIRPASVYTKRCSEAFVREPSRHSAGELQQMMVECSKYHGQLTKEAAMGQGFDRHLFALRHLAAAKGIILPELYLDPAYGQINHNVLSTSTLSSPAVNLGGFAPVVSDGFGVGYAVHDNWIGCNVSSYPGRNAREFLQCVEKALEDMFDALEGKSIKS

[3] = biological target: T3, Carnitine O-palmitoyltransferase 1, liver isoform (Rattus norvegicus, UniProt P32198); experiment: (§2) SUPPLEMENTARY: Inhibition of Carnitine palmitoyltransferase 1, liver isoform
T3 sequence (P32198 whole entry): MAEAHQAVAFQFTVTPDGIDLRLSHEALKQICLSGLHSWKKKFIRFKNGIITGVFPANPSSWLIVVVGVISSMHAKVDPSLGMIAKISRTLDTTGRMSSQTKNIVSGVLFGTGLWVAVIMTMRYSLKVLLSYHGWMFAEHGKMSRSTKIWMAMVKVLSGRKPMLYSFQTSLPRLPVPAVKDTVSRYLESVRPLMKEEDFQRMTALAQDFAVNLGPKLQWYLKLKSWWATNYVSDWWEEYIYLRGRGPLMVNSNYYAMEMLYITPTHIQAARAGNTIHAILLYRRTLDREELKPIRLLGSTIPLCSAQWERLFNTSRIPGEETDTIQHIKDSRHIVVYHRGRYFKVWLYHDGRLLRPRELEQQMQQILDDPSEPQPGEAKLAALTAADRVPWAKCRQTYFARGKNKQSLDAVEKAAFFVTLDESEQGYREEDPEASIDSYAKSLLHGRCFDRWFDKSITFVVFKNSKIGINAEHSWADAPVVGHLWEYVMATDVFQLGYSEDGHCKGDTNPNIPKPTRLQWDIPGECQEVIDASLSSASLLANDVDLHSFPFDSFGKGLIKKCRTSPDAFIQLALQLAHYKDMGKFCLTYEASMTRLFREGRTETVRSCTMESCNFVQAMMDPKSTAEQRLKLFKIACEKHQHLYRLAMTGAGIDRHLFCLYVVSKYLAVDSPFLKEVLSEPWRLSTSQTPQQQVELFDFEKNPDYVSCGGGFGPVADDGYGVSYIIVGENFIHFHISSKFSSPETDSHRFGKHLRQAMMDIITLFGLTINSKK

[4] = biological target: T4, Carnitine O-palmitoyltransferase 1, liver isoform (Homo sapiens, UniProt P50416); experiment: as §2
T4 sequence (P50416 whole entry): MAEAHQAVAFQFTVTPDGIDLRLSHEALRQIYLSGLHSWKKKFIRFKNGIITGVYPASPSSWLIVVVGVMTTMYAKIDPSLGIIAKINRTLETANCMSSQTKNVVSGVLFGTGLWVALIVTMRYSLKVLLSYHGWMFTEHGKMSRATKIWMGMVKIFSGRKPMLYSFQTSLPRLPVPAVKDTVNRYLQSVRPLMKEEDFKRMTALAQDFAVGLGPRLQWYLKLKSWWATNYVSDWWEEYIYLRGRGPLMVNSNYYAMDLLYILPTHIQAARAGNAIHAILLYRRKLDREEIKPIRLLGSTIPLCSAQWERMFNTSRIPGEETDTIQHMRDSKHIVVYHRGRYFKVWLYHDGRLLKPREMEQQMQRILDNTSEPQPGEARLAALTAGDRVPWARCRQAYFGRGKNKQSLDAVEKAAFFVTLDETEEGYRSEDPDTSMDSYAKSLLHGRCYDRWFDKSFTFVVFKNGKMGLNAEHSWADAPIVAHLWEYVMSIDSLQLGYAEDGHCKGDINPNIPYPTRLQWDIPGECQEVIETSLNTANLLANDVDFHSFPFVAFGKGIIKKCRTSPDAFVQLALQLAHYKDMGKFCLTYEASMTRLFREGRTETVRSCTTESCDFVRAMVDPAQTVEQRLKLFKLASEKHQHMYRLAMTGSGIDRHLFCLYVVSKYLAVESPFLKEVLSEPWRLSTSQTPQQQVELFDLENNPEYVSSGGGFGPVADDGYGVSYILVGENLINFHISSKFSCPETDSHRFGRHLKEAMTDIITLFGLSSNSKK

[5] = biological target: T5, Carnitine O-palmitoyltransferase 1, muscle isoform (Homo sapiens, UniProt Q92523); experiment: SUPPLEMENTARY: Inhibition of Carnitine palmitoyltransferase 1, muscle isoform; set-up: species or system Muscle tissue
T5 sequence (Q92523 whole entry): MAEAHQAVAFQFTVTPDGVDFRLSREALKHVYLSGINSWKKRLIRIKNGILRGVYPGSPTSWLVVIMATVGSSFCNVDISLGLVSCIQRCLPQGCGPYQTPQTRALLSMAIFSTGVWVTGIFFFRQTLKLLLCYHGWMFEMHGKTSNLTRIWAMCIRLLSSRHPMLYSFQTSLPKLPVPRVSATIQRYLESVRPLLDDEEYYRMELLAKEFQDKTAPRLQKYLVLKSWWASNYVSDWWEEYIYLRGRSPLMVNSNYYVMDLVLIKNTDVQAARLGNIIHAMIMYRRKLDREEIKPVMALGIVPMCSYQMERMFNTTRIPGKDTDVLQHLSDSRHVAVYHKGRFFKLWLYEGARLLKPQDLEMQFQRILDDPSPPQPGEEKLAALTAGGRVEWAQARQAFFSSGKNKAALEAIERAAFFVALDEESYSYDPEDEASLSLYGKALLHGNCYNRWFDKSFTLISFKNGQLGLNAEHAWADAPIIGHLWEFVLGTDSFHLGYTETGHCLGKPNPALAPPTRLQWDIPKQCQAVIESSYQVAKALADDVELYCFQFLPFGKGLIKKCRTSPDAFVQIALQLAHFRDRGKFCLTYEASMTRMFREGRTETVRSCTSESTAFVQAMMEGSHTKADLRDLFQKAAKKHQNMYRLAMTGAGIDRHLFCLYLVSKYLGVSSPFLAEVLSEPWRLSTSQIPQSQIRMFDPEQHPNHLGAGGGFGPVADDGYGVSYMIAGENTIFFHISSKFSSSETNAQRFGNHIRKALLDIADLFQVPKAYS

[6] = SUPPLEMENTARY: Lipophilicity (log D) Determination by high-throughput shake-flask; type: physicochemical; conditions: octanol/water
[7] = SUPPLEMENTARY: PAMPA permeability assay; type: physicochemical; conditions: read-out: Permeability
[8] = SUPPLEMENTARY: Lyophilisation Solubility Assay (LYSA); type: physicochemical; conditions: read-out: Kinetic_solubility

Row | Compound | IC50 [1] | IC50 [2] | IC50 [3] | IC50 [4] | IC50 [5] | logD [6] | Papp [7] | solubility kinetic [8]
1 | COc1ccc(Cl)cc1S(=O)(=O)N1CCOc2ncc(C(=O)Nc3ccccc3)cc21 | > 100000 nM | > 100000 nM | 237 nM | 270 nM | > 100000 nM | 3.31 | 4.38 ×10⁻⁶ cm/s | 4 µg/mL (≈ 8.7 µM)
2 | O=C(COc1ccccc1)N1CCCC[C@@H]1c1nc(-c2ccc([N+](=O)[O-])s2)no1 | > 100000 nM | 62300 nM | 376 nM | 223 nM | > 100000 nM | > 3 | 4.39 ×10⁻⁶ cm/s | < 1 µg/mL
3 | NC(=O)c1cccc(-c2noc([C@H]3CCCCN3C(=O)COc3ccccc3)n2)c1 | 45700 nM | 16700 nM | 156 nM | 40.8 nM | 72300 nM | 2.57 | 2.55 ×10⁻⁶ cm/s | 42 µg/mL (≈ 103 µM)
4 | COc1ccc(Cl)cc1S(=O)(=O)N1CCSc2ccc(C(=O)Nc3ccc(C(=O)O)c(F)c3)cc21 | 9040 nM | 1990 nM | 70.5 nM | 84 nM | 400 nM | 2.6 | 2.57 ×10⁻⁶ cm/s | 7 µg/mL (≈ 13 µM)
5 | CC(=O)Nc1ccc(F)c(-c2n[nH]c([C@H]3CCCCN3C(=O)COc3ccccc3)n2)c1 | > 100000 nM | > 100000 nM | 312 nM | 332 nM | > 100000 nM | 2.5 | 4.32 ×10⁻⁶ cm/s | 181 µg/mL (≈ 414 µM)
6 | COc1ccc(Cl)cc1S(=O)(=O)N1CCOc2ccc(C(=O)Nc3ccc(C(=O)O)c(F)c3)cc21 | 23400 nM | 6300 nM | 80.5 nM | 65.1 nM | 1800 nM | 0.29 | 1.71 ×10⁻⁶ cm/s | 15 µg/mL (≈ 28.8 µM)

Next, values leading:

Row | IC50 [1] | IC50 [2] | IC50 [3] | IC50 [4] | IC50 [5] | logD [6] | Papp [7] | solubility kinetic [8] | Compound
7 | > 100000 nM | > 100000 nM | 85.9 nM | 96.3 nM | 1130 nM | 2.65 | 3.4 ×10⁻⁶ cm/s | 102 µg/mL (≈ 184 µM) | CCN(c1cc(C(=O)Nc2nc(CC(=O)O)cs2)cc2c1OCO2)S(=O)(=O)c1cc(Cl)ccc1OC
8 | 1310 nM | 507 nM | 76.8 nM | 210 nM | > 100000 nM | 2.45 | 3.57 ×10⁻⁶ cm/s | 37 µg/mL (≈ 76.7 µM) | O=C([C@H]1CCCCN1C(=O)COc1ccccc1)N1Cc2cc(F)c(OC3CCOCC3)cc2C1
9 | > 100000 nM | > 100000 nM | 84.5 nM | 40.8 nM | > 100000 nM | > 3 | 1.26 ×10⁻⁶ cm/s | < 1 µg/mL | COc1ccc(Cl)cc1S(=O)(=O)N1CCOc2ccc(C(=O)Nc3ccccc3)cc21
10 | > 100000 nM | > 100000 nM | 85.2 nM | 226 nM | 45100 nM | 2.38 | 0.75 ×10⁻⁶ cm/s | 8 µg/mL (≈ 18.1 µM) | COc1ccc(Cl)cc1S(=O)(=O)Nc1cccc(C#Cc2ccc(C(=O)O)cc2)c1
11 | 10000 nM | 2460 nM | 27.2 nM | 74.9 nM | 2570 nM | 2.21 | 0.76 ×10⁻⁶ cm/s | 14 µg/mL (≈ 30.2 µM) | Cc1cc(C)cc(S(=O)(=O)c2nn(C)c3ccc(C(=O)Nc4ccc(C(=O)O)cc4)cc23)c1
12 | > 100000 nM | 40900 nM | 65.4 nM | 80.1 nM | 844 nM | 0.58 | 2.77 ×10⁻⁶ cm/s | 195 µg/mL (≈ 372 µM) | COc1ccc(Cl)cc1S(=O)(=O)N1COc2c(C)cc(C(=O)Nc3nc(CC(=O)O)cs3)cc21
13 | > 100000 nM | > 100000 nM | 106 nM | 181 nM | > 100000 nM | 3.08 | 4.38 ×10⁻⁶ cm/s | 20 µg/mL (≈ 56.3 µM) | O=C(COc1ccccc1)N1CCCC[C@@H]1c1noc(C2CCCC2)n1
14 | > 100000 nM | > 100000 nM | 527 nM | 197 nM | 4260 nM | -1.41 | 0.13 ×10⁻⁶ cm/s | > 566 µg/mL | COc1ccc(Cl)cc1S(=O)(=O)N(C)c1cc(C(=O)Nc2ccn(CC(=O)O)n2)cc2c1OCO2
